Non-standard residues stand in square brackets, D forms with d. Residues, ends and D or L forms follow the SMILES beside them. Met(O2) = CS(=O)(=O)CC[C@H](N)C(=O)O; Aib = CC(C)(N)C(=O)O

The values that follow come from patent US9751926B2 (priority 2013, dated 2017).

For one data set, the target named is T1, human glucagon receptor (Homo sapiens, UniProt P47871).
T1 construct: expressed in transfected cells
Briefly: cAMP response (HTRF) of HEK-293 cells stably expressing human glucagon receptor. Type of data set: cell-based. The settings on record: Table 6; formed cAMP; read-out: EC50 hGLUC R. The method, then:
(§1) cAMP content of cells was determined using a kit from Cisbio Corp. (cat. no. 62AM4PEC) based on HTRF (Homogenous Time Resolved Fluorescence). For preparation, cells were split into T175 culture flasks and grown overnight to near confluency in medium (DMEM/10% FBS). Medium was then removed and cells washed with PBS lacking calcium and magnesium, followed by proteinase treatment with accutase (Sigma-Aldrich cat. no. A6964). Detached cells were washed and resuspended in assay buffer (1×HBSS; 20 mM HEPES, 0.1% BSA, 2 mM IBMX) and cellular density determined. They were then diluted to 400000 cells/ml and 25 μl-aliquots dispensed into the wells of 96-well plates. For measurement, 25 μl of test compound in assay buffer was added to the wells, followed by incubation for 30 minutes at room temperature.
Background: TR-FRET usually uses a lanthanide donor and a delayed reading to cut background.

For the next data set, the target named is T2, human GLP-1 receptor (Homo sapiens, UniProt P43220).
T2 construct: expressed in transfected cells
Nature of the data set: cAMP response (HTRF) of HEK-293 cells stably expressing human GLP-1 receptor. Type of data set: cell-based. The settings on record: Table 6; formed cAMP; read-out: EC50 hGLP-1 R. The method, then:
as §1

A short description of a further data set: physchem. Type of data set: physicochemical.

T1 sequence (P47871 26-477): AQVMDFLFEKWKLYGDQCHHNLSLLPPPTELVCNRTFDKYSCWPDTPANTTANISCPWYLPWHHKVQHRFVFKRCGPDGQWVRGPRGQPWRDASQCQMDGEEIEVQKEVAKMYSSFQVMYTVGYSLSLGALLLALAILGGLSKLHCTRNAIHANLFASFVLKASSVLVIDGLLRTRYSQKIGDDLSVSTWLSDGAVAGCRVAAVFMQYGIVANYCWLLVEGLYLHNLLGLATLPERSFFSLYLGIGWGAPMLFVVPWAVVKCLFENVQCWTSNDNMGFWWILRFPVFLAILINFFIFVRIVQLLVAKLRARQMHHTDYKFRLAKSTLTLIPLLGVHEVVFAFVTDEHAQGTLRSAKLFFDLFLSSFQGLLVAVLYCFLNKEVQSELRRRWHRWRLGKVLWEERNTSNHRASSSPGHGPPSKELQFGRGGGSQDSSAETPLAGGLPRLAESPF
T2 sequence (P43220 24-463): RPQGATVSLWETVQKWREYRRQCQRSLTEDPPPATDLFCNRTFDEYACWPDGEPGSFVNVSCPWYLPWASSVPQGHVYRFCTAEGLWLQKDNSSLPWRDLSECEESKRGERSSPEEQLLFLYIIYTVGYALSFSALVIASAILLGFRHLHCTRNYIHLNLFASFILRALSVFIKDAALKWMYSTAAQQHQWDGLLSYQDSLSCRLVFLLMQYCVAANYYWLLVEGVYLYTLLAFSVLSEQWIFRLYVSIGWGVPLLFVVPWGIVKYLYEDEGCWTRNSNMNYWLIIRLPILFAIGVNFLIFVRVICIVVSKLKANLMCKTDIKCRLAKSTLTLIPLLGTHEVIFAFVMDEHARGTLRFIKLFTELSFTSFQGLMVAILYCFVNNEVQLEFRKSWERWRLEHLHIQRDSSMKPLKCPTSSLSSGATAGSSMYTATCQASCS

One may read the EC50 as the concentration giving half of the maximal effect. Take `CC[C@H](C)[C@H](NC(=O)[C@H](CO)NC(=O)[C@H](CC(C)C)NC(=O)[C@H](CC(=O)O)NC(=O)[C@H](CO)NC(=O)[C@@H](NC(=O)[C@H](Cc1ccccc1)NC(=O)[C@@H](NC(=O)CNC(=O)[C@H](CCC(=O)O)NC(=O)C(C)(C)NC(=O)[C@@H](N)Cc1ccc(O)cc1)[C@@H](C)O)[C@@H](C)O)C(=O)N[C@@H](CCC(N)=O)C(=O)N[C@@H](CC(C)C)C(=O)N[C@@H](CCC(=O)O)C(=O)N[C@@H](CCC(=O)O)C(=O)N[C@@H](CCC(=O)O)C(=O)N[C@@H](C)C(=O)N[C@H](C(=O)N[C@@H](CCCNC(=N)N)C(=O)N[C@@H](CC(C)C)C(=O)N[C@@H](Cc1ccccc1)C(=O)N[C@H](C(=O)N[C@@H](CCC(=O)O)C(=O)N[C@@H](Cc1c[nH]c2ccccc12)C(=O)N[C@@H](CC(C)C)C(=O)N[C@@H](CCCCN)C(=O)N[C@@H](C)C(=O)NCC(=O)NCC(=O)N1CCC[C@H]1C(=O)N[C@@H](CO)C(=O)N[C@@H](CO)C(=O)NCC(=O)N[C@@H](C)C(=O)N1CCC[C@H]1C(=O)N1CCC[C@H]1C(=O)N1CCC[C@H]1C(=O)N[C@@H](CO)C(N)=O)[C@@H](C)CC)C(C)C` [compound 15] (H-Y[Aib]EGTFTSDLSIQLEEEAVRLFIEWLKAGGPSSGAPPPS-NH2): the 50% effective concentration (EC50) at human glucagon receptor was above 1000 nM.
The same measure, in the same setting: next, `CC[C@H](C)[C@H](NC(=O)[C@H](CO)NC(=O)[C@H](CC(C)C)NC(=O)[C@H](CC(=O)O)NC(=O)[C@H](CO)NC(=O)[C@@H](NC(=O)[C@H](Cc1ccccc1)NC(=O)[C@@H](NC(=O)CNC(=O)[C@H](CCC(=O)O)NC(=O)C(C)(C)NC(=O)[C@@H](N)Cc1ccc(O)cc1)[C@@H](C)O)[C@@H](C)O)C(=O)N[C@@H](CCC(N)=O)C(=O)N[C@@H](CC[S+](C)[O-])C(=O)N[C@@H](CCC(=O)O)C(=O)N[C@@H](CCCCN)C(=O)N[C@@H](CCC(=O)O)C(=O)N[C@@H](C)C(=O)N[C@H](C(=O)N[C@@H](CCCNC(=N)N)C(=O)N[C@@H](CC(C)C)C(=O)N[C@@H](Cc1ccccc1)C(=O)N[C@H](C(=O)N[C@@H](CCC(=O)O)C(=O)N[C@@H](Cc1c[nH]c2ccccc12)C(=O)N[C@@H](CC(C)C)C(=O)N[C@@H](CCCCN)C(=O)N[C@@H](C)C(=O)NCC(=O)NCC(=O)N1CCC[C@H]1C(=O)N[C@@H](CO)C(=O)N[C@@H](CO)C(=O)NCC(=O)N[C@@H](C)C(=O)N1CCC[C@H]1C(=O)N1CCC[C@H]1C(=O)N1CCC[C@H]1C(=O)N[C@@H](CO)C(N)=O)[C@@H](C)CC)C(C)C` (stereo partly shown) [compound 13]: above 1000 nM.
Consider `CC[C@H](C)[C@H](NC(=O)[C@H](CO)NC(=O)[C@H](CC(C)C)NC(=O)[C@H](CC(=O)O)NC(=O)[C@H](CO)NC(=O)[C@@H](NC(=O)[C@H](Cc1ccccc1)NC(=O)[C@@H](NC(=O)CNC(=O)[C@H](CCC(=O)O)NC(=O)C(C)(C)NC(=O)[C@@H](N)Cc1ccc(O)cc1)[C@@H](C)O)[C@@H](C)O)C(=O)N[C@@H](CCC(N)=O)C(=O)N[C@@H](CC(C)C)C(=O)N[C@@H](CCC(=O)O)C(=O)N[C@@H](CCCCN)C(=O)N[C@@H](CCC(=O)O)C(=O)N[C@@H](C)C(=O)N[C@H](C(=O)N[C@@H](CCCNC(=N)N)C(=O)N[C@@H](CC(C)C)C(=O)N[C@@H](Cc1ccccc1)C(=O)N[C@H](C(=O)N[C@@H](CCC(=O)O)C(=O)N[C@@H](Cc1c[nH]c2ccccc12)C(=O)N[C@@H](CC(C)C)C(=O)N[C@@H](CCCCN)C(=O)N[C@@H](C)C(=O)NCC(=O)NCC(=O)N1CCC[C@H]1C(=O)N[C@@H](CO)C(=O)N[C@@H](CO)C(=O)NCC(=O)N[C@@H](C)C(=O)N1CCC[C@H]1C(=O)N1CCC[C@H]1C(=O)N1CCC[C@H]1C(=O)N[C@@H](CO)C(N)=O)[C@@H](C)CC)C(C)C` [compound 10], for which the 50% effective concentration (EC50) at human GLP-1 receptor was determined as 1.2 pM.
For the compound `CC[C@H](C)[C@H](NC(=O)[C@H](CO)NC(=O)[C@H](CC(C)C)NC(=O)[C@H](CC(=O)O)NC(=O)[C@H](CO)NC(=O)[C@@H](NC(=O)[C@H](Cc1ccccc1)NC(=O)[C@@H](NC(=O)CNC(=O)[C@H](CCC(=O)O)NC(=O)C(C)(C)NC(=O)[C@@H](N)Cc1ccc(O)cc1)[C@@H](C)O)[C@@H](C)O)C(=O)N[C@@H](CCC(N)=O)C(=O)N[C@@H](CC(C)C)C(=O)N[C@@H](CCC(=O)O)C(=O)N[C@@H](CCC(=O)O)C(=O)N[C@@H](CCC(=O)O)C(=O)N[C@@H](C)C(=O)N[C@H](C(=O)NC(C)(C)C(=O)N[C@@H](CC(C)C)C(=O)N[C@@H](Cc1ccccc1)C(=O)N[C@H](C(=O)N[C@@H](CCC(=O)O)C(=O)N[C@@H](Cc1c[nH]c2ccccc12)C(=O)N[C@@H](CC(C)C)C(=O)N[C@@H](CCCCN)C(=O)N[C@@H](C)C(=O)NCC(=O)NCC(=O)N1CCC[C@H]1C(=O)N[C@@H](CO)C(=O)N[C@@H](CO)C(=O)NCC(=O)N[C@@H](C)C(=O)N1CCC[C@H]1C(=O)N1CCC[C@H]1C(=O)N1CCC[C@H]1C(=O)N[C@@H](CO)C(N)=O)[C@@H](C)CC)C(C)C` [compound 16], the values for the concentration giving a half-maximal response (EC50) at human GLP-1 receptor and at human glucagon receptor were 1 pM and above 1000 nM, respectively.
The solubility is the concentration that dissolves in the medium under given conditions. Low readings indicate little dissolved substance, high ones much dissolved substance. Take `CC[C@H](C)[C@H](NC(=O)[C@H](CO)NC(=O)[C@H](CC(C)C)NC(=O)[C@H](CC(=O)O)NC(=O)[C@H](CO)NC(=O)[C@@H](NC(=O)[C@H](Cc1ccccc1)NC(=O)[C@@H](NC(=O)CNC(=O)[C@H](CCC(=O)O)NC(=O)C(C)(C)NC(=O)[C@@H](N)Cc1ccc(O)cc1)[C@@H](C)O)[C@@H](C)O)C(=O)N[C@@H](CCC(N)=O)C(=O)N[C@@H](CCS(C)(=O)=O)C(=O)N[C@@H](CCC(=O)O)C(=O)N[C@@H](CCCCN)C(=O)N[C@@H](CCC(=O)O)C(=O)N[C@@H](C)C(=O)N[C@H](C(=O)N[C@@H](CCCNC(=N)N)C(=O)N[C@@H](CC(C)C)C(=O)N[C@@H](Cc1ccccc1)C(=O)N[C@H](C(=O)N[C@@H](CCC(=O)O)C(=O)N[C@@H](Cc1c[nH]c2ccccc12)C(=O)N[C@@H](CC(C)C)C(=O)N[C@@H](CCCCN)C(=O)N[C@@H](C)C(=O)NCC(=O)NCC(=O)N1CCC[C@H]1C(=O)N[C@@H](CO)C(=O)N[C@@H](CO)C(=O)NCC(=O)N[C@@H](C)C(=O)N1CCC[C@H]1C(=O)N1CCC[C@H]1C(=O)N1CCC[C@H]1C(=O)N[C@@H](CO)C(N)=O)[C@@H](C)CC)C(C)C` [compound 14] (H-Y[Aib]EGTFTSDLSIQ[Met(O2)]EKEAVRLFIEWLKAGGPSSGAPPPS-NH2): the half-maximal effective concentration (EC50) on human glucagon receptor was above 1000 nM. Moreover, the solubility at 2 h in the data set “physchem” (pH 4.5) and in “physchem” (pH 7.4) was above 1000 µg/mL each time.
For `CC[C@H](C)[C@H](NC(=O)[C@H](CO)NC(=O)[C@H](CC(C)C)NC(=O)[C@H](CC(=O)O)NC(=O)[C@H](CO)NC(=O)[C@@H](NC(=O)[C@H](Cc1ccccc1)NC(=O)[C@@H](NC(=O)CNC(=O)[C@H](CCC(=O)O)NC(=O)C(C)(C)NC(=O)[C@@H](N)Cc1ccc(O)cc1)[C@@H](C)O)[C@@H](C)O)C(=O)N[C@@H](CCC(N)=O)C(=O)N[C@@H](CC(C)C)C(=O)N[C@@H](CCC(=O)O)C(=O)N[C@@H](CCC(=O)O)C(=O)N[C@@H](CCC(=O)O)C(=O)N[C@@H](C)C(=O)N[C@H](C(=O)N[C@](C)(CCCCN)C(=O)N[C@@H](CC(C)C)C(=O)N[C@@H](Cc1ccccc1)C(=O)N[C@H](C(=O)N[C@@H](CCC(=O)O)C(=O)N[C@@H](Cc1c[nH]c2ccccc12)C(=O)N[C@@H](CC(C)C)C(=O)N[C@@H](CCCCN)C(=O)N[C@@H](C)C(=O)NCC(=O)NCC(=O)N1CCC[C@H]1C(=O)N[C@@H](CO)C(=O)N[C@@H](CO)C(=O)NCC(=O)N[C@@H](C)C(=O)N1CCC[C@H]1C(=O)N1CCC[C@H]1C(=O)N1CCC[C@H]1C(=O)N[C@@H](CO)C(N)=O)[C@@H](C)CC)C(C)C` [compound 18], the EC50 at human glucagon receptor is above 1000 nM.
Take `CC[C@H](C)[C@H](NC(=O)[C@H](CO)NC(=O)[C@H](CC(C)C)NC(=O)[C@H](CC(=O)O)NC(=O)[C@H](CO)NC(=O)[C@@H](NC(=O)[C@H](Cc1ccccc1)NC(=O)[C@@H](NC(=O)CNC(=O)[C@H](CCC(=O)O)NC(=O)C(C)(C)NC(=O)[C@@H](N)Cc1ccc(O)cc1)[C@@H](C)O)[C@@H](C)O)C(=O)N[C@@H](CCC(N)=O)C(=O)N[C@@H](CCSC)C(=O)N[C@@H](CCC(=O)O)C(=O)N[C@@H](CCCCN)C(=O)N[C@@H](CCC(=O)O)C(=O)N[C@@H](C)C(=O)N[C@H](C(=O)N[C@@H](CCCNC(=N)N)C(=O)N[C@@H](CC(C)C)C(=O)N[C@@H](Cc1ccccc1)C(=O)N[C@H](C(=O)N[C@@H](CCC(=O)O)C(=O)N[C@@H](Cc1c[nH]c2ccccc12)C(=O)N[C@@H](CC(C)C)C(=O)N[C@@H](CCCCN)C(=O)N[C@@H](C)C(=O)NCC(=O)NCC(=O)N1CCC[C@H]1C(=O)N[C@@H](CO)C(=O)N[C@@H](CO)C(=O)NCC(=O)N[C@@H](C)C(=O)N1CCC[C@H]1C(=O)N1CCC[C@H]1C(=O)N1CCC[C@H]1C(=O)N[C@@H](CO)C(N)=O)[C@@H](C)CC)C(C)C` [compound 9] (H-Y[Aib]EGTFTSDLSIQMEKEAVRLFIEWLKAGGPSSGAPPPS-NH2): the EC50 is 1.1 pM on human GLP-1 receptor and above 1000 nM on human glucagon receptor.
Taken in the same sequence, the figures for `CC[C@H](C)[C@H](NC(=O)[C@H](CO)NC(=O)[C@H](CC(C)C)NC(=O)[C@H](CC(=O)O)NC(=O)[C@H](CO)NC(=O)[C@@H](NC(=O)[C@H](Cc1ccccc1)NC(=O)[C@@H](NC(=O)CNC(=O)[C@H](CCC(=O)O)NC(=O)C(C)(C)NC(=O)[C@@H](N)Cc1ccc(O)cc1)[C@@H](C)O)[C@@H](C)O)C(=O)N[C@@H](CCC(N)=O)C(=O)N[C@@H](CC(C)C)C(=O)N[C@@H](CCC(=O)O)C(=O)N[C@@H](CCC(=O)O)C(=O)N[C@@H](CCC(=O)O)C(=O)N[C@@H](C)C(=O)N[C@H](C(=O)N[C@@](C)(CCCCN)C(=O)N[C@@H](CC(C)C)C(=O)N[C@@H](Cc1ccccc1)C(=O)N[C@H](C(=O)N[C@@H](CCC(=O)O)C(=O)N[C@@H](Cc1c[nH]c2ccccc12)C(=O)N[C@@H](CC(C)C)C(=O)N[C@@H](CCCCN)C(=O)N[C@@H](C)C(=O)NCC(=O)NCC(=O)N1CCC[C@H]1C(=O)N[C@@H](CO)C(=O)N[C@@H](CO)C(=O)NCC(=O)N[C@@H](C)C(=O)N1CCC[C@H]1C(=O)N1CCC[C@H]1C(=O)N1CCC[C@H]1C(=O)N[C@@H](CO)C(N)=O)[C@@H](C)CC)C(C)C` [compound 17] were 1.1 pM and above 1000 nM.
